In patent US10975081B2, “Substituted fused pyrazole compounds and their use as LRRK2 inhibitors” (GlaxoSmithKline Intellectual Property Development Limited, priority 2015, dated 2021):

What was measured:
[1] = target: Full length G2019 human LRRK2 (Homo sapiens (Human), UniProt Q5S007); experiment: Full length G2019 human LRRK2 inhibition mass spectrometry assay; assay type: biochemical; details: Full length Flag-LRRK2, 25 uM LRRKtide, 2 mM ATP; for IC50: read-out: Full length G2019 human LRRK2 Inhibition mass spectrometry assay (pIC50) (converted)
Chain of Full length G2019 human LRRK2 (Q5S007 other isoform, or with tags, fused parts or gaps): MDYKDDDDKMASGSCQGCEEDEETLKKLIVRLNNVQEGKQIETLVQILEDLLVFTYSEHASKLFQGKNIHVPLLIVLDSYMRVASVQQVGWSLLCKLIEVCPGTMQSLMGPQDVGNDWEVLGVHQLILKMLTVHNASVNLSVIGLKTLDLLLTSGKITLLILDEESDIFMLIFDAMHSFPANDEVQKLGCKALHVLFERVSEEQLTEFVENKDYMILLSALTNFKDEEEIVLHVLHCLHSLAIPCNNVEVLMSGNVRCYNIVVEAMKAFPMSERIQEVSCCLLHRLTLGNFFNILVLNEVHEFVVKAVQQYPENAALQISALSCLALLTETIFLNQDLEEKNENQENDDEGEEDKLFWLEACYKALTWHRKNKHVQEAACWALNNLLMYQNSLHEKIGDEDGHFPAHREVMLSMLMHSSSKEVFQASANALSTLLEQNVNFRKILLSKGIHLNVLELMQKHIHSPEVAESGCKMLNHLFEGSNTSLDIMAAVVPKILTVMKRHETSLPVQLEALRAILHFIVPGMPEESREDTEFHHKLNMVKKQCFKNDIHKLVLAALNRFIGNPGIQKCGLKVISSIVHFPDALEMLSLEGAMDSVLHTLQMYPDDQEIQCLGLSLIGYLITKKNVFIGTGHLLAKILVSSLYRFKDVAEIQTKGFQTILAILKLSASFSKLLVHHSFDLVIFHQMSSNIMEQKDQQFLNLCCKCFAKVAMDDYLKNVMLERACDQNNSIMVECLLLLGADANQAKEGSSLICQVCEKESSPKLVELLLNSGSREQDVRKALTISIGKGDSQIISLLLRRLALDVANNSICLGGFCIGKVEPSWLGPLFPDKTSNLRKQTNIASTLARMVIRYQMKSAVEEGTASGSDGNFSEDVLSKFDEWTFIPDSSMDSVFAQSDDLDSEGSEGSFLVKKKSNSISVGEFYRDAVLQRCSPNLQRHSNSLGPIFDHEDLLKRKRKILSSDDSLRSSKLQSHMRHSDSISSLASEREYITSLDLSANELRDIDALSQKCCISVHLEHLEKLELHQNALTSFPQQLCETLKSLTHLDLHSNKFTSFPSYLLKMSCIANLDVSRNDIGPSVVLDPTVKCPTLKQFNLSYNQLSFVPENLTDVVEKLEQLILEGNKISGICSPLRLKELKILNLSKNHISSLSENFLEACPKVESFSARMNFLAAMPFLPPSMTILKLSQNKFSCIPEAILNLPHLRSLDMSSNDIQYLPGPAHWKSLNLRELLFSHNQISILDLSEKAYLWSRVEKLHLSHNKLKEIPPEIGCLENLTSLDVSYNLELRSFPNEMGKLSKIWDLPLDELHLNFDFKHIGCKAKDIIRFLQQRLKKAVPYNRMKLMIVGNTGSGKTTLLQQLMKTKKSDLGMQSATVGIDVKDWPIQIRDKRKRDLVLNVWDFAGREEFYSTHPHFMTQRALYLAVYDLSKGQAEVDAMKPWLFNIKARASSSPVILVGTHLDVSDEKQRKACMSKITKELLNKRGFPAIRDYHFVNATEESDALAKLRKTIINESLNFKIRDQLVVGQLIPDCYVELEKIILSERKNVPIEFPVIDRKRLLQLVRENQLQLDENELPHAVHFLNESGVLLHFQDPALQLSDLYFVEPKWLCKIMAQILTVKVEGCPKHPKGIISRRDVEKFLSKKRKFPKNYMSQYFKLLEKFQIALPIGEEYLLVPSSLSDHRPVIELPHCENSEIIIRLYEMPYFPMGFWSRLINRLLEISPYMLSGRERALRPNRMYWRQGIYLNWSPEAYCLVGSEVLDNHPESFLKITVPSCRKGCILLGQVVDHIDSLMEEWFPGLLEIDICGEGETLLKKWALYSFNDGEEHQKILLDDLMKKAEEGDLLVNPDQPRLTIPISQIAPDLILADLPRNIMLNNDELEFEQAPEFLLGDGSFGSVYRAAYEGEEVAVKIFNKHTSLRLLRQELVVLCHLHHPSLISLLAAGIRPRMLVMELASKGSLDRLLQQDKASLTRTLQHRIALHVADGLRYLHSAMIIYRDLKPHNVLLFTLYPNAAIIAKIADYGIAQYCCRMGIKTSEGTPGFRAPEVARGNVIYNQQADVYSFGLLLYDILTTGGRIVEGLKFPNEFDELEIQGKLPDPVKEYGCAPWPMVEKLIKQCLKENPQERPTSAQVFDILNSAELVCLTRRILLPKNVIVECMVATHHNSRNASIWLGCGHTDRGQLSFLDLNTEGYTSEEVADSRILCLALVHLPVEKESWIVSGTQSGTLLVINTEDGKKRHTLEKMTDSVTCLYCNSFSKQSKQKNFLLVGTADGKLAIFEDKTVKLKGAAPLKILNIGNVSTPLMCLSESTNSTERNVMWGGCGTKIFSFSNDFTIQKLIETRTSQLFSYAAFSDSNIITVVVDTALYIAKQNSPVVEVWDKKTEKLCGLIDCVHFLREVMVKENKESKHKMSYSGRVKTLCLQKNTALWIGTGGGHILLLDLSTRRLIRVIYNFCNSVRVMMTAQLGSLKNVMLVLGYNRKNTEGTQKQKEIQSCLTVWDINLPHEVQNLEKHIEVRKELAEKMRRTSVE
Method: Mass Spectrometer Settings • LRRKtide Detection settings: Q1 mass 644.8 Da, Q3 mass 638.8, declustering potential 76 volts, collision energy 37 volts, CXP 34 volts • Phospho-LRRKtide Detection settings: Q1 mass 671.4 Da, Q3 mass 638.8, Declustering potential 76 volts, Collision energy 37 volts, CXP 34 volts. • A C4 cartridge was used and running buffers were: A (aqueous) 0.1% formic acid in water B (organic) 0.1% formic acid, 80% acetonitrile, 20% water • 5. Data was analysed using ActivityBase software (IDBS). A percent conversion from LRRKtide to Phospho-LRRKtide was calculated using the following formula: % conversion=(Phospho-LRRKtide product peak area/(Phospho-LRRKtide product peak area+LRRKtide substrate peak area))*100 2) Full Length G2019 Human LRRK2 Inhibition Mass Spectrometry Assay Insect Cell Cultures
Sf9 insect cells (Invitrogen Life Technologies, Carlsbad, Calif.) were maintained at 27° C. in SF 900 II SFM in 500-ml stationary flasks. The cells were maintained in exponential growth phase and subcultured twice per week. For larger volumes, cells were grown in 2-liter shaker flasks (Erlenmeyer, Corning) while being agitated with 120 rpm at 27° C. incubator shaker.
Human G2019 LRRK2 Plasmids Preparation
Primers Used for PCR Cloning:
• pHTBV-F: SEQ ID No: 1 • LRRK2 wt-F1: SEQ ID No: 2 • LRRK2 wt-R1: SEQ ID No: 3 • LRRK2 wt-F2: SEQ ID No: 4 • LRRK2 wt-R2: SEQ ID No: 5 • LRRK2 wt-F3: SEQ ID No: 6 • pHTBV-R: SEQ ID No: 7
The primers described above were used to amplify full length human LRRK2 (amino acids from 1-2527) with N terminal Flag tag from BioCat 116313 using high fidelity PCR polymerase KOD-Plus according to the manufacturer's instructions (KOD-211, TOYOBO). The PCR product was digested with BamHI and KpnI and ligated into BamHI and KpnI digested pHTBV1mcs3 (BioCat 127555). The sequence of the target fragment was confirmed by DNA sequencing. The construct BioCat141351 was generated by Novoprotein.
The G2019 full length Flag-LRRK2 coding sequence is SEQ ID No: 8.
The translated protein sequence for human G2019 full length LRRK2 flag tagged protein is SEQ ID No: 9.
Generation of the BacMam Virus
To generate the recombinant BacMam virus, SF9 cells were seeded in 6-well tissue culture dishes at 9×10^5 cells/well and allowed to attach for 20 min. Transfection procedure was followed using AESOP AP5911v2. Briefly, DH10Bac competent cells (10361-012, Invitrogen) were transformed by the genotypically normal human LRRK2 BacMam plasmid to generate the recombinant baculovirus DNA. The Sf9 insect cells were co-transfected with the mixture of recombinant baculovirus DNA and cellfectin (10362-100, Invitrogen). After 4 h of incubation at 27° C., the transfection media was replaced with Sf-900 III SFM medium containing 5% HI FBS (Ser. No. 10/100,147, Invitrogen). The cells were further incubated for 4 days. The infected cell culture medium containing the baculovirus (P0 virus stock) was collected and amplified by further infecting the Sf9 cells at multiplicity of infection (MOI) (pfu/cell) of 0.1.
Quantification of BacMam Viral Titre by BacPAKRapid Titer
The viral titre, measured as plaque forming unit (pfu)/ml was determined using BacPAK Papid Titer Kit (631406, Clontech) according to the manufacturer's protocol. The Sf9 cells seeded in 96-well plate with 3×10^5 cells per well were incubated with serial dilution of the viral stocks for 1 h at 27° C., 50 μl methyl cellulose overlay was added to each well followed by 43-47 h incubation. The cells were then fixed in 4% paraformaldehyde (PFA). After blocking the cells with diluted normal goat serum, Mouse anti-gp64 antibody was added to the cells. After 30 min incubation, the cells were washed with phosphate buffered saline containing 0.1% Triton-X100 (PBST) and incubated for another 30 min with goat anti-mouse antibody/HRP conjugate. This was followed by blue peroxidase substrate which detects the single infected cells and foci of infected cells by their dark blue color. […]

[2] = target: LRRK2 Ser935 phosphorylation in SH-SY5Y cells over-expressing recombinant full length LRRK2 (Homo sapiens (Human), UniProt Q5S007); experiment: Recombinant cellular LRRK2 AlphaScreen assay; assay type: cell-based; details: 60 minutes, read-out: Recombinant cellular LRRK2 alphaScreen assay (pIC50) (converted)
Chain of LRRK2 Ser935 phosphorylation in SH-SY5Y cells over-expressing recombinant full length LRRK2 (Q5S007 whole entry): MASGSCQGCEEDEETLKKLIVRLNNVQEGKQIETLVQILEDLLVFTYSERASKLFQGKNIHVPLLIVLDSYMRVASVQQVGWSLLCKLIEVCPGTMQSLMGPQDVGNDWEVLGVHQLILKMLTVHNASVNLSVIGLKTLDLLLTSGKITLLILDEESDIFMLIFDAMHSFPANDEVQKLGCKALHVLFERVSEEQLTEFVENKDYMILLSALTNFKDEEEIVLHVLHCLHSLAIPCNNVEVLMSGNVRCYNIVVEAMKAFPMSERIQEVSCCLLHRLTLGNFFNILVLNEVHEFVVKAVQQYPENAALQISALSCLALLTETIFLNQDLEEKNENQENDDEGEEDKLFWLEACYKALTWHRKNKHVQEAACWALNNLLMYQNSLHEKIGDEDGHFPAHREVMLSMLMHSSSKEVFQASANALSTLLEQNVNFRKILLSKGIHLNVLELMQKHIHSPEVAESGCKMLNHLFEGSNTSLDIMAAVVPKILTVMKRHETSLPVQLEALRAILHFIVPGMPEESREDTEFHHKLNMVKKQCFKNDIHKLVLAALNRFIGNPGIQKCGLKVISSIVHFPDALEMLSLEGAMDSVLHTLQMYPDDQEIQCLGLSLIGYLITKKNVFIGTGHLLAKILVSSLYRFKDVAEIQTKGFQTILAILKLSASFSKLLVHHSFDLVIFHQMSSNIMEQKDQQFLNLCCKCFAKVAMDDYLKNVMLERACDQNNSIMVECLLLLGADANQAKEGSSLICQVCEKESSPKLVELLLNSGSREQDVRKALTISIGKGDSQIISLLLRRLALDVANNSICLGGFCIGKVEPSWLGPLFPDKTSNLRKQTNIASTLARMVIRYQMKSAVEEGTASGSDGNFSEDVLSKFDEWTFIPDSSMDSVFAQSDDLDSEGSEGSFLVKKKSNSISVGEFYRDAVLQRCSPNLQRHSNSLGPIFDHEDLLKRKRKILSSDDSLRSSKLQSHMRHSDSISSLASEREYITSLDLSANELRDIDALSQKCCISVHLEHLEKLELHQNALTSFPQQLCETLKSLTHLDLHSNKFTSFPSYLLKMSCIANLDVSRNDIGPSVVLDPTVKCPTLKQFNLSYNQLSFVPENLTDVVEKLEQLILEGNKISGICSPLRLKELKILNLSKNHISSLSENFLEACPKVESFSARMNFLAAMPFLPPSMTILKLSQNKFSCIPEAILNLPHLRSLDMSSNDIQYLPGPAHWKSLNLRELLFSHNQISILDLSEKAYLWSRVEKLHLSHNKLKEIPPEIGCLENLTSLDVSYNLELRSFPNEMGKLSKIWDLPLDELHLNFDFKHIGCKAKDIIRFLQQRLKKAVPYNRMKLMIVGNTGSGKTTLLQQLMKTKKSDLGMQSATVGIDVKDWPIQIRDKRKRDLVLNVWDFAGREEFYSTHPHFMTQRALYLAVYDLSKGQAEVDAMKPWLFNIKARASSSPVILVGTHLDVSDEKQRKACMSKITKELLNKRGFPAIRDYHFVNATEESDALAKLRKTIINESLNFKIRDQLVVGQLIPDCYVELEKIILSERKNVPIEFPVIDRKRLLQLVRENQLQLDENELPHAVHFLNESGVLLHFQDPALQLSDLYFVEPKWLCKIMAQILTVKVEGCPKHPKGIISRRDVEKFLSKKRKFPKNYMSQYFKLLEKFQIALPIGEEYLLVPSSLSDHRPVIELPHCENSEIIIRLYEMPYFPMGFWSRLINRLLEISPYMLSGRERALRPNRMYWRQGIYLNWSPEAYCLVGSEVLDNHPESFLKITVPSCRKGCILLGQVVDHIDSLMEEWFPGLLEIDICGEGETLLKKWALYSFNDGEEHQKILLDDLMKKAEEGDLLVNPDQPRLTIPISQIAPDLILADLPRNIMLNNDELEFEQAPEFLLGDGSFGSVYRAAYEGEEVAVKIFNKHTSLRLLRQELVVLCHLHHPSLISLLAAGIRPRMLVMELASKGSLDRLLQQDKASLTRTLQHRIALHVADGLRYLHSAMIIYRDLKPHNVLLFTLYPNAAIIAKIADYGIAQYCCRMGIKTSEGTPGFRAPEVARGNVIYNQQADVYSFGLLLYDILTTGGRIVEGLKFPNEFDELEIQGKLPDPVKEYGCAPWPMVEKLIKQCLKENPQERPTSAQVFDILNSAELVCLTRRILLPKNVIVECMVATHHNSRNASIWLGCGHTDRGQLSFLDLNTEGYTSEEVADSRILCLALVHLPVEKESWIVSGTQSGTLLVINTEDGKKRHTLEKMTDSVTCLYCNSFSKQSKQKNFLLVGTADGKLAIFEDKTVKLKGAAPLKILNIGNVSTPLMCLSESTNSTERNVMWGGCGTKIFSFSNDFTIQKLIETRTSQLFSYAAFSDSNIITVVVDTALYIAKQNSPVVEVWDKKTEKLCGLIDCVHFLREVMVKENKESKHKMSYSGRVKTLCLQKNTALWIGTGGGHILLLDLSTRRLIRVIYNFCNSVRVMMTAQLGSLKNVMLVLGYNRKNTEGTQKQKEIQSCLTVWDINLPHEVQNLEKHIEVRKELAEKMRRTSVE
Description: To determine the activity of compounds against LRRK2 kinase activity in cells, the observed LRRK2 kinase-dependent modulation of LRRK2 Ser 935 phosphorylation (Dzamko et al., 2010, Biochem. J. 430: 405-413) was utilized to develop a quantitative 384 well plate-based immunoassay of LRRK2 Ser935 phosphorylation in the human neuroblastoma cell line SH-SY5Y, engineered to over-express recombinant full length LRRK2 protein.
A BacMam virus expressing full length recombinant LRRK2 was purchased from Invitrogen and amplified by inoculation of SF-9 cells at MOI 0.3 for 4-5 days in Sf-900 III SFM medium supplemented with 3% fetal bovine serum. Infected cell cultures were then centrifuged at 2000 g for 20 minutes, viral supernatant titer determined by anti-gp64 plaque assay and stored at 4° C.
Affinity-purified anti-phospho LRRK2 Ser935 sheep polyclonal antibody (Dzamko et al., 2010, Biochem. J. 430: 405-413) was biotinylated by standard methods (PerkinElmer). Anti-LRRK2 rabbit polyclonal antibody was purchased from Novus Biologicals. AlphaScreen Protein A IgG Kit (including acceptor and donor beads) was purchased from Perkin Elmer.
SH-SY5Y cells were grown in DMEM/F12 medium with 10% dialysed fetal bovine serum and harvested by treatment with 0.5% trypsin-EDTA for 5 minutes at 37° C. followed by centrifugation at 1000 rpm for 4 minutes. The cell pellet was resuspended in Opti-MEM reduced serum media (Invitrogen) at 200,000 cells/ml and mixed with the BacMam LRRK2 virus at M01=50. 50 μl cell solutions were then dispensed to each well of a 384-well plate and incubated at 37° C., 5% CO2 for 24 hours.
Serial dilutions of test compounds were prepared in Opti-MEM reduced serum media (Invitrogen) and 5.6 ul transferred from compound plate to cell assay plate to achieve a top final assay concentration of 10 uM. DMSO was used in certain wells as controls. Cells were incubated at 37° C., 5% CO2 for 60 minutes. The medium was then removed and cells lysed by addition of 20 ul cell lysis buffer (Cell Signaling Technology) and incubation at 4° C. for 20 minutes. 10 ul of antibody/acceptor bead mix [( 1/1000 biotinylated-pS935 LRRK2 antibody, 1/1000 total-LRRK2 antibody, 1/100 Acceptor beads in AlphaScreen detection buffer (25 mM Hepes (pH 7.4), 0.5% Triton X-100, 1 mg/ml Dextran 500 and 0.1% BSA)] was then added to each well and plates incubated for 2 hours at ambient temperature in the dark. 10 μl of donor beads solution (1/33.3 donor beads in AlphaScreen detection buffer) was then added to each well. Following incubation for a further 2 hours at ambient temperature in the dark, plates were read on an EnVision™ plate reader at emission 520-620 nm with excitation 680 nm. Dose response curve data was based on sigmoidal dose-response model.

| IC50 [1] [nM] | IC50 [2] [nM] | Full length G2019 human LRRK2 Inhibition mass spectrometry assay (pIC50) [1] | Structure (SMILES) |
| --- | --- | --- | --- |
| ≤ 10000 | ≤ 100 |  | Cc1nc(N2CC(O)C2)cc(-n2ncc3cc(C)c(C4CCN(C5COC5)CC4F)cc32)n1 (single isomer, unassigned) [Example E42, (cis)-1-(6-(6-(3-Fluoro-1-(oxetan-3-yl)piperidin-4-yl)-5-methyl-1H-indazol-1-yl)-2-methylpyrimidin-4-yl)azetidin-3-ol] |
| ≤ 10000 |  |  | Cc1nc(-n2ncc3cc(C)c(C4CCN(C5COC5)CC4F)cc32)cc([C@H]2C[C@@H](O)C2)n1 (single isomer, unassigned) [Example E45, (cis)-(1s,3s)-3-(6-(6-(3-Fluoro-1-(oxetan-3-yl)piperidin-4-yl)-5-methyl-1H-indazol-1-yl)-2-methylpyrimidin-4-yl)cyclobutanol] |
| 7.94 | 5.01 |  | COc1nc(N2CCO[C@@H](CO)C2)cc(-n2ncc3cc(C)c(C4CCN(C5COC5)CC4F)cc32)n1 (single isomer, unassigned) [Example E170] |
| 251 | 631 |  | COc1nc(N2CC(O)C2)cc(-n2ncc3cc(C)c(C4CN(C)CCO4)cc32)n1 (single isomer, unassigned) [Example E230, 1-(2-Methoxy-6-(5-methyl-6-(4-methylmorpholin-2-yl)-1H-indazol-1-yl)pyrimidin-4-yl)azetidin-3-ol] |
| ≤ 10000 | ≤ 100 |  | COc1nc(N2CC(C)(O)C2)cc(-n2ncc3cc(C)c(C4CCN(C5COC5)CC4)cc32)n1 [Example E80, 1-(2-Methoxy-6-(5-methyl-6-(1-(oxetan-3-yl)piperidin-4-yl)-1H-indazol-1-yl)pyrimidin-4-yl)-3-methylazetidin-3-ol] |
|  | 63.1 | 7.9 | Cc1nc(N2CCO[C@H](CO)C2)cc(-n2ncc3cc(C)c(C4CCN(C5COC5)CC4)cc32)n1 [Example E183, (S)-(4-(2-Methyl-6-(5-methyl-6-(1-(oxetan-3-yl)piperidin-4-yl)-1H-indazol-1-yl)pyrimidin-4-yl)morpholin-2-yl)methanol] |
|  | 79.4 | 7.6 | Cc1nc(N2CCO[C@@H](CO)C2)cc(-n2ncc3cc(C)c(C4CCNCC4)cc32)n1 [Example E188, (R)-(4-(2-Methyl-6-(5-methyl-6-(piperidin-4-yl)-1H-indazol-1-yl)pyrimidin-4-yl)morpholin-2-yl)methanol] |
|  | 50.1 | 7.7 | COc1nc(N2CCOCC2)cc(-n2ncc3cc(C)c(C4CCNCC4)cc32)n1.Cl [Example E205, 4-(2-Methoxy-6-(5-methyl-6-(piperidin-4-yl)-1H-indazol-1-yl)pyrimidin-4-yl)morpholine] |
|  | 39.8 | 7.7 | Cc1nc(N2CCO[C@H](CO)C2)cc(-n2ncc3cc(Cl)c(C4CCN(C5COC5)CC4)cc32)n1 [Example E208, (S)-(4-(6-(5-Chloro-6-(1-(oxetan-3-yl)piperidin-4-yl)-1H-indazol-1-yl)-2-methylpyrimidin-4-yl)morpholin-2-yl)methanol] |
|  | 158 | 7.9 | Cc1nc(N2CCO[C@@H](CO)C2)cc(-n2ncc3cc(C)c(C4CCOCC4)cc32)n1 [Example E239, (R)-(4-(2-Methyl-6-(5-methyl-6-(tetrahydro-2H-pyran-4-yl)-1H-indazol-1-yl)pyrimidin-4-yl)morpholin-2-yl)methanol] |
